Entries after “also recorded” stand apart in the source; their conditions may differ. Where no end group is shown, it is not given here.
Legend:
[1] = test system: HLA Class I on human White Blood Cells; test: Expression of MHC (HLA) Class I on human White Blood Cells; format: cell-based; conditions: 0.003 micrograms per ml
From the text: A cell specific effect of this activation was an increase in the population of monocytes expressing MHC Class I and a decrease in the population of CD8 lymphocytes expressing MHC Class I.

[2] = test system: transplanted cervical cancer CUC-5; test: Transplanted mouse cervical cancer model CUC-5; format: in vivo, CBA mice; conditions: for Percent decrease in tumour volume relative to control / Days of life expectancy: CUC-5; for Days of life expectancy: control 47-76
From the text: Anticancer Activity of Hepreceptor Peptides on the Growth of Transplanted Sarcoma of the Uterus SM-322 and on Cancer of the Uterine Cervix CUS-5 Performed in CBA Mice Using Rupe312 and Rupe414 as Examples
Transplanted mouse cervical cancer model CUC-5 (epithelial tumour)
Primary tumours were induced in female mice using methylcholantrene. A few primary turnouts were then auto-transplanted into the uterine cervix. The life expectancy of mice with transplanted tumours was 43 days.
CBA female mice weighed 21.4=/−1.2 g. and were 2-3 months old. The tumours were introduced as a 0.5 ml of tumour suspension (1 g tumour per 10 ml of Igla medium) and ten mice used in each treatment group.
Lyophylised peptide were dissolved in sterile physiological saline immediately before use in three concentrations. 0.5 ml of solution was injected twice weekly into the peritoneum of the mice for the duration of the experiment. Three different concentrations of peptide were used leading to three final doses per injection per mouse of 10, 1.0 and 0.1 micrograms.
The average percent decrease of tumour volume relative to the control group was recorded at three time points. The longevity of the mice in the treatment groups and control groups was compared and the histology of the tumours between control and treatment groups was compared.

activated macrophages = test: Induction of activated macrophages in mice (peritoneal exsudate); format: in vivo
Protocol: Groups of three mice (CDAxC57B1)F1 weighing 22-24 g were injected abdominally with each peptide solution of 1.0 microgram of peptide dissolved in 0.5 ml of physiological saline. After 24 hours the animals were killed using neck vertebrae dislocation and 5 ml of Hanks solution was injected into the abdomen. The abdomen was massaged for 30 seconds and then the peritoneal liquid was collected. The collected liquid was filtered using a nylon filter into siliconised tubes containing 1.5 mg/ml EDTA. The number of nucleus containing cells in […] of filtrate were then assessed under microscopic examination using a Nihon hemocytometer. The cells were pelleted by centrifugation for 5 minutes at 800 g, the pellet was resuspended in fetal calf serum, the cell suspension was dropped on to a glass microscope slide and dried then fixed in methanol and stained with Romanovski's colouring agent. Morphological analysis of the cells of the peritoneal exsudate were performed using an Opton optical microscope at 1600 magnifications. The number of lymphocytes, resting macrophages, activated macrophages, granulocytes and other cell types were assessed.

[3] = test system: transplanted sarcoma of the uterus SM-322; test: Transplanted mouse sarcoma SM-322 model; format: in vivo, CBA mice; conditions: for Percent decrease in tumour volume relative to control: SM-322
From the text: Anticancer Activity of Hepreceptor Peptides on the Growth of Transplanted Sarcoma of the Uterus SM-322 and on Cancer of the Uterine Cervix CUS-5 Performed in CBA Mice Using Rupe312 and Rupe414 as Examples Transplanted mouse sarcoma SM-322 model (endothelial tumour). Primary tumours of the uterus were induced in female mice using 1.2 dimethylhydrazine. A few primary tumours were transplanted into syngeneic mice. The first visible nodules started to appear at the point of transplation after 4 days. The life expectancy of the mice with transplanted tumours was 22-24 days. […] The tumours were introduced as a 0.5 ml of tumour suspension (1 g tumour per 10 ml of Igla medium) and ten mice used in each treatment group. […] The average percent decrease of tumour volume relative to the control group was recorded at three time points. The longevity of the mice in the treatment groups and control groups was compared and the histology of the tumours between control and treatment groups was compared.

[4] = test system: human Peripheral Blood Mononuclear Cells; test: In vitro activation of human PBMC, tritiated thymidine incorporation; format: cell-based; conditions: for incorporation of 3H thymidine: three days, Control 370
Protocol: Peripheral Blood Mononuclear Cells (PBMC) were separated from the peripheral blood of a […] donor using the standard method of fractionation in a ficoll gradient. The PBMC were suspended in culture medium containing RPMI1640 medium plus 10% fetal calf serum, 1 mM L-glutamin and antibiotics (BM). The cell suspension was placed in wells of a 96 hole microwell plate for cell cultivation, (100 microliters of suspension containing 100,000 cells per well). […] The negative control well contained BM but no peptide. The plate was incubated at 37° C. for three days then radioactive ^3H thymidine was added to a final concentration of 1 microcurie per ml. The incorporation of ^3H thymidine into the DNA of the cells was measured using a betacounter using standard procedures. The experiment was repeated twice and the results expressed as an average of the two experiments in radioactive counts per minute.

[5] = test system: transplanted sarcoma of the uterus SM-322; test: Transplanted mouse sarcoma SM-322 model; format: in vivo, CBA mice; conditions: control 12-16
[6] = Animal toxicology and pre-clinical testing of HEP1; conditions: rat and rabbit
[7] = 0.1 Microg/mouse IP twice weekly, Day 8
[8] = 0.1 Microg/mouse IP twice weekly, Day 12
[9] = 0.1 Microg/mouse IP twice weekly
[10] = 1 Microg/mouse IP twice weekly, Day 8
[11] = 1 Microg/mouse IP twice weekly, Day 12
[12] = 10 Microg/mouse IP twice weekly, Day 8
[13] = 10 Microg/mouse IP twice weekly, Day 12
[14] = 10 Microg/mouse IP twice weekly

KRRETVEREKE (Hepreceptor peptide) [Rupe414]
relative activity in lowering intensity of HLA expression on WBC ([1]; 24 hours): more active than HEP1 | Density of cell surface expression of HLA Class I, rebased to 100 for control ([1]; B and NK cells, 24 hours): 77 | Percentage of cell population expressing HLA Class I, rebased to 100 for control ([1]; B and NK cells, 24 hours): 101 | Density of cell surface expression of HLA Class I, rebased to 100 for control ([1]; CD4 lymphocytes, 24 hours): 77 | Percentage of cell population expressing HLA Class I, rebased to 100 for control ([1]; CD4 lymphocytes, 24 hours): 105 | Density of cell surface expression of HLA Class I, rebased to 100 for control ([1]; CD8 lymphocytes, 24 hours): 76 | Percentage of cell population expressing HLA Class I, rebased to 100 for control ([1]; CD8 lymphocytes, 24 hours): 89 | Density of cell surface expression of HLA Class I, rebased to 100 for control ([1]; Granulocytes, 24 hours): 85 | Percentage of cell population expressing HLA Class I, rebased to 100 for control ([1]; Granulocytes, 24 hours): 98 | Percentage of cell population expressing HLA Class I, rebased to 100 for control ([1]; Monocytes/Macrophages, 24 hours): 109 | Density of cell surface expression of HLA Class I, rebased to 100 for control ([1]; Monocytes/Macrophages, 24 hours at 37° C.): 83 | Percent decrease in tumour volume relative to control [2, 7]: 50% | Percent decrease in tumour volume relative to control [2, 8]: 18% | Percent decrease in tumour volume relative to control ([2]; 0.1 Microg/mouse IP twice weekly, Day 19): 57% | Days of life expectancy [2, 9]: 47 to 76 days | Percent decrease in tumour volume relative to control [2, 10]: 50% | Percent decrease in tumour volume relative to control [2, 11]: 16% | Percent decrease in tumour volume relative to control ([2]; 1 Microg/mouse IP twice weekly, Day 19): 43% | Days of life expectancy ([2]; 1 Microg/mouse IP twice weekly): 36 to 76 days | Percent decrease in tumour volume relative to control [2, 12]: 50% | Percent decrease in tumour volume relative to control [2, 13]: 16% | Percent decrease in tumour volume relative to control ([2]; 10 Microg/mouse IP twice weekly, Day 19): 48% | Days of life expectancy [2, 14]: 36 to 76 days | change in life expectancy ([2]; slower growing transplanted cervical cancer): no significant increase (or decrease) in life expectancy was detected | activity in increasing activated macrophages relative to HEP1 (activated macrophages; 1.0 microgram peptide/mouse): significantly more active than HEP1 | Activated macrophages as a percent of total number of cells (activated macrophages; 1.0 microgram peptide/mouse injected abdominally, after 24 hours, saline 1.9): 8.5% | Percent decrease in tumour volume relative to control [3, 7]: 68% | Percent decrease in tumour volume relative to control [3, 8]: 39% | Percent decrease in tumour volume relative to control ([3]; 0.1 Microg/mouse IP twice weekly, Day 15): 22% | Percent decrease in tumour volume relative to control [3, 10]: 68% | Percent decrease in tumour volume relative to control [3, 11]: 28% | Percent decrease in tumour volume relative to control ([3]; 1 Microg/mouse IP twice weekly, Day 15): 43% | Percent decrease in tumour volume relative to control [3, 12]: 65% | Percent decrease in tumour volume relative to control [3, 13]: 43% | Percent decrease in tumour volume relative to control ([3]; 10 Microg/mouse IP twice weekly, Day 15): 43% | histology of the tumours ([3]; both models (SM-322 and CUC-5)): non bleeding ulcerous destruction of the centre of tumours | activity relative to HEP1 ([4]; PBMC activation, thymidine incorporation): significantly more active than HEP1; also recorded: ten fold higher activity than HEP1 | concentration of peak activity ([4]; PBMC proliferation): around 3 nanograms/ml | incorporation of 3H thymidine ([4]; Peptide 0.0001 micro g/ml): 493 radioactive counts per minute | incorporation of 3H thymidine ([4]; Peptide 0.0003 micro g/ml): 580 radioactive counts per minute | incorporation of 3H thymidine ([4]; Peptide 0.001 micro g/ml): 684 radioactive counts per minute | incorporation of 3H thymidine ([4]; Peptide 0.003 micro g/ml): 2087 radioactive counts per minute | incorporation of 3H thymidine ([4]; Peptide 0.01 micro g/ml): 650 radioactive counts per minute | incorporation of 3H thymidine ([4]; Peptide 0.03 micro g/ml): 596 radioactive counts per minute | incorporation of 3H thymidine ([4]; Peptide 0.1 micro g/ml): 485 radioactive counts per minute | incorporation of 3H thymidine ([4]; Peptide 0.3 micro g/ml): 492 radioactive counts per minute | incorporation of 3H thymidine ([4]; Peptide 1 micro g/ml): 449 radioactive counts per minute | incorporation of 3H thymidine ([4]; Peptide 3 micro g/ml): 437 radioactive counts per minute | incorporation of 3H thymidine ([4]; Peptide 10 micro g/ml): 394 radioactive counts per minute | Days of life expectancy [5, 9]: 12 to 19 days | Days of life expectancy ([5]; 1 Microg/mouse IP twice weekly): 12 to 20 days | Days of life expectancy [5, 14]: 13 to 20 days

TEKKRRETVEREKE [HEP1, TEKKRRETVEREKE]
Chronic toxicity [6]: negative | Effect of 1000× therapeutic dose [6]: negative | Embryotoxicity [6]: negative | Influence on CNS and HVS [6]: negative | Local Irritation [6]: negative | Mutagenic effects [6]: negative | Sub-acute toxicity [6]: negative | Preliminary evaluation of toxicity ([6]; pharmaceutical grade HEP1): negative
